Assay results: publication PMC7495481, “Sequence specificity analysis of the SETD2 protein lysine methyltransferase and discovery of a SETD2 super-substrate” (Communications Biology, 2020)

Experiments:
Format in all cases: biochemical
SETD2 [1] = molecular target: T1, SETD2 (Homo sapiens, UniProt Q9BYW2); test: Steady-state peptide methylation kinetics (Michaelis-Menten); conditions: 20–320 µM peptide; Michaelis-Menten fit; two independent experiments
T1 construct: SETD2 catalytic SET domain (amino acids 1347–1711, UniProt No: Q9BYW2); made in house; host or cells: E. coli
T1 sequence (Q9BYW2 1347-1711): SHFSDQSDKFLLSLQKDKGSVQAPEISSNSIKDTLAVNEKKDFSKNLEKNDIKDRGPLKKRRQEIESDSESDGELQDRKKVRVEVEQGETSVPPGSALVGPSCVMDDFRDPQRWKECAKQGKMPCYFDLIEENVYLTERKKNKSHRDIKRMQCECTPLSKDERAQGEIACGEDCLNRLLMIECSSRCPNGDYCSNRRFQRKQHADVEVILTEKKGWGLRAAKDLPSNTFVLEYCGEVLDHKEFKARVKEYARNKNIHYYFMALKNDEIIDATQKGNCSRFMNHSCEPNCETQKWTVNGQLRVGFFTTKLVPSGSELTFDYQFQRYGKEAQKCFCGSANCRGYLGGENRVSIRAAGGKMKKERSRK
Procedure: To further characterize the methylation kinetics of the super-substrate peptide, steady-state methylation experiments were performed using the super-substrate peptide in different concentrations ranging from 20 to 320 µM (Supplementary Fig. 3a). […] To further study the difference in peptide binding, inhibition of SETD2 by ssK36M and H3K36M inhibitor peptides was investigated (Supplementary Fig. 3b and c).
The H3K36 (27–43) and the H3K36M (27–43) peptides were purchased from Intavis AG (Köln, Germany) and the ssK36 peptide (29–43) and the ssK36M peptide (29–43) were from Innovative Peptide Solutions (Berlin, Germany). If not indicated otherwise, peptide methylation reactions were performed using 20 µM peptide and 6 µM SETD2 in 20 µl methylation buffer supplemented with 0.76 µM radioactive labeled AdoMet (PerkinElmer) for 3 h at 25 °C. The reactions were halted by the addition of Tricine-SDS-PAGE loading buffer and incubation for 5 min at 95 °C. […] The signals of the transferred radioactive labeled methyl groups were detected by autoradiography using a hyperfilm^TM high performance autoradiography film (GE Healthcare) at −80 °C in the dark. […]
Multiple turnover kinetics were determined using variable peptide concentrations (20–320 µM). […]

SETD2 [2] = molecular target: T1, SETD2; test: Single turnover time course of ssK36 methylation; conditions: 5 µM substrate, 6 µM enzyme; average ± SEM
Procedure: The H3K36 (27–43) and the H3K36M (27–43) peptides were purchased from Intavis AG (Köln, Germany) and the ssK36 peptide (29–43) and the ssK36M peptide (29–43) were from Innovative Peptide Solutions (Berlin, Germany). If not indicated otherwise, peptide methylation reactions were performed using 20 µM peptide and 6 µM SETD2 in 20 µl methylation buffer supplemented with 0.76 µM radioactive labeled AdoMet (PerkinElmer) for 3 h at 25 °C. The reactions were halted by the addition of Tricine-SDS-PAGE loading buffer and incubation for 5 min at 95 °C. Afterward the samples were separated by Tricine-SDS-PAGE, which was followed by the incubation of the gel in amplify NAMP100V (GE Healthcare) for 45 min on a shaker and drying of the gel for 2 h at 55 °C in vacuum. The signals of the transferred radioactive labeled methyl groups were detected by autoradiography using a hyperfilm^TM high performance autoradiography film (GE Healthcare) at −80 °C in the dark. The film was developed with an Optimax Typ TR machine after different exposure times.
Time courses of ssK36 methylation were analyzed by fitting to an exponential reaction progress curve (Eq. 1). Initial rates of single turnover reactions were determined using the first derivative of eq. 1 at t = 0. Signal=BL+F×1−exp^−kst×t […]

NSD2 = test: Peptide methylation by NSD2; conditions: peer review file
From the text: We, therefore, repeated the peptide array used for the development of the SETD2 super-substrate, which is shown in Figure 2A of our manuscript for NSD1 and NSD2. […]
that this mutation specifically increases the activity of these two enzymes. In contrast, with […]
combined with H39N/K. Importantly, in case of SETD2 H39N only has an effect in the context of the other mutations in ssK36. We conclude that the ssK36 substrate is specifically optimized for SETD2 as expected given the workflow of our experiments. The finding that H39N increases the activity of NSD1 and NSD2 is interesting and deserves additional work. It […]
conducted with NSD1 and NSD2. The SETD2 panel is taken from the manuscript for comparison. The table indicates the peptide compositions. Note, the gradual increase of methylation with increasing number of mutations in the case of SETD2. In case of NSD1 and NSD2, increased methylation is solely due to the H39N mutation , which has a weaker […]

- Km (SETD2 [1]): 45 µM
- single turnover methylation rate constant kst (SETD2 [2]): 4.07 ± 0.39 h⁻¹
Sequence: APRFGGVKRPNRYRP [ssK36, super-substrate peptide with four amino acid exchanges (A31R, T32F, K37R, H39N)]
- methylation by NSD2 (NSD2): better substrate than H3K36
